Results as given in patent US11484607B2, “PSMA-targeted NIR dyes and their uses” (On Target Laboratories, LLC, priority 2015, dated 2022).

Experiments:
[1] = Concentration dependent UV spectrometric study of higher order aggregates; assay type: physicochemical; details: 75 μM in saline
Protocol: Possible OTL78-related hypersensitivity in human was next examined using basophil activation assay. Drug related hypersensitivity is mainly due to immune response caused by cross-linking of immunoglobulin E (IgE) expressed on mast cells and basophils (FIG. 47D) resulting in activation and subsequent degranulation to release vasoactive amines, prostaglandins, and cytokines (29). Since cross-linking of IgE can be due to aggregates, concentration dependent UV spectrometric studies were conducted to determine higher order aggregates of OTL78.

PSMA on 22Rv1 cells = target: T1, PSMA on 22Rv1 cells (Homo sapiens, UniProt Q04609); assay: OTL78 relative affinity (IC50) by competition with DUPA-FITC; assay type: binding; details: 100 nM DUPA-FITC, 30 min at 4° C., flow cytometer; read-out: IC50 competing with DUPA-FITC
T1 construct: host or cells: 22Rv1 human prostate cancer cells
Protocol: In vitro binding: For OTL78 relative affinity (IC50), 22Rv1 or PC3 cells were plated into a T75 flask and allowed to form a monolayer over 48 h. After trypsin digestion, released cells were transferred into centrifuge tubes (1×10^6 cells/tube) and centrifuged. Spent medium in each tube was replaced with 100 nM DUPA-FITC in the presence of increasing concentration (0.001 nM-10 μM) of OTL78 in fresh medium (0.5 mL). After incubating for 30 min at 4° C., cells were rinsed with culture medium (2×1.0 mL) and saline (1×1.0 mL) to remove any unbound DUPA-FITC. Cells were then re-suspended in saline (0.5 mL) and cell bound fluorescence was quantified using a flow cytometer. The relative affinities were calculated using a plot of percent cell bound fluorescence versus the log concentration of OTL78 using GraphPad Prism 6.

22Rv1 orthotopic tumors = assay: OTL78 imaging of orthotopic prostate tumors, AMI image system; assay type: in vivo, SCID mice; details: 10 nmol, 2 h
Protocol: For orthotopic tumors, 2×10^5 22Rv1 cells/mouse in 10% high concentrated (HC) matrigel with RPMI1640 medium were surgically implanted in the prostate of seven-week-old male SCID mice. Briefly, seven-week-old male SCID mice were given 1-5% isoflurane for anesthesia and subcutaneous injection of 5 mg/kg meloxicam preoperatively for analgesia. The mice were placed dorsal side up and washed above the prostate with a chlorhexidine scrub to ensure a sterile area for incision. After an insertion was made using scalpel through the skin, the peritoneal lining was lifted to make a small incision using a scissor and widened using forceps. Dorsal lobes were exteriorized and gently stabilized with a wet (PBS) cotton swab. 22Rv1 cells (in 10 μL of 10% HC-matrigel) were injected the prostate using a 28-gage needle. After placing the prostate back into the peritoneum, the abdominal wall was sutured, the body wall was closed using 3-0 or 4-0 vicryl and the skin was closed using staples. Animals were monitored until use them for the studies. After one month, the animals were administered with OTL78 (10 nmol in 100 μL saline per mouse), euthanized after 2 h by CO2 asphyxiation, and imaged using AMI image system.

22Rv1 tumor xenografts [2] = system: 22Rv1 tumor xenografts
Protocol: (§1) Whole body Imaging & Tissue biodistribution: Seven-week-old male nu/nu mice were inoculated subcutaneously with 5.0×106 22Rv1, LNCaP, PC3 or A549 cells/mouse in 50% high concentrated matrigel with RPMI1640 medium on the shoulder. Growth of the tumors was measured in perpendicular directions every 2 days using a caliper (body weights were monitored on the same schedule), and the volumes of the tumors were calculated as 0.5×L×W2 (L=longest axis and W=axis perpendicular to L in millimeters). Once tumors reached approximately 300-400 mm3 in volume, animals (3-5 mice/group) were intravenously injected with appropriate dose of OTL78 in saline.
(§2) For whole body imaging and biodistribution studies, animals were euthanized after 2 h of administration of OTL78 by CO2 asphyxiation. For time dependent studies, animals were imaged under anesthesia using isoflurane. Imaging experiments were then performed using IVIS or AMI image systems. Following whole body imaging, animals were dissected and selected tissues were analyzed for fluorescence activity using IVIS or AMI image system and ROI of the tissues were calculated using Living Image 4.0 software or AMIView Image Analysis Software.

[3] = Excitation and emission spectra by fluorometer; assay type: physicochemical; details: same concentration, 1 μM in 1 mL of PBS
Protocol: FIG. 38B—Excitation (Ex) & emission (Em) spectra of OTL78 (1 μM) and S0456 (1 μM) in 1 mL of PBS obtained using fluorometer.
Results and Conclusions: In an effort to improve limitations in current clinical practice of radical prostatectomy and tumor-specific imaging agents that are in the preclinical stages, OTL78 was assembled using: (i) a high affinity PSMA-targeting ligand (coined DUPA), (ii) a rationally designed 14 atoms long polyethylene glycol-dipeptide linker, and (iii) an inexpensive NIR dye ([…]) named S0456 (see FIG. 38A for the chemical structure). The dipeptide consisting of phenylalanine-tyrosine was designed to fit to the contours and chemistry of the tunnel accessing the binding pocket of the PSMA protein.

basophils = assay: Basophil activation test (Flow CAST) in human blood samples; assay type: cell-based
Protocol: Tolerability Studies: The blood samples were collected into hirudin tubes and used within an hour of collection. For each donor, 4 different tubes were prepared for allergen, positive controls, and negative control. Samples were analyzed using Flow CAST® high sensitivity Basophil Activation Test (BAT). Briefly, stimulation buffer (100 μL, background) or anti-FcεER antibody (100 μL) or fMLP (100 μL) or OTL78 (75 μM in 100 μL of saline) was added to tubes containing stimulation buffer (200 μL). 100 μL of blood was added to each tube and mixed gently. After adding staining reagent (40 μL) containing anti-CD63-CD203c-PE-DY647 and anti-CCR3-PE, each tube was mixed gently and incubated for 15 minutes at 37° C. Lysing reagent (2 mL) was added to each tube, mixed gently, incubated for 5-10 minutes at room temperature, and centrifuged for 5 minutes at 500×g. The supernatant was discarded and the cells were re-suspended in wash buffer (900 μL) and analyzed using flow cytometry. CD63-CD203c-PE-DY647+/CCR3-PE+ cell population considered as the activated basophils.

22Rv1 tumor xenografts [4] = assay: Fluorescence-guided surgery of prostate tumors with OTL78; assay type: in vivo, mice
Protocol: Growth of the tumors was measured as previously mentioned. After one month, the animals were mixed and divided into 2 groups (n=5 mice/group). Two hours after administering OTL78 (10 nmol in 100 μL saline per mouse), animals were given 1-5% isoflurane for anesthesia and imaged using AMI image system. After an insertion was made using scalpel through the skin, surgical removal of the tumors was performed either following conventional technique (e.g. visualization under white light or palpation) or with the aid of fluorescence guidance (FGS: debulking of visible tumors under conventional method followed by resection of residual fluorescence tissues under image-guided method). After the surgery, the skin was closed using staples and imaged the mice using AMI image system. After imaging, the residual fluorescent tissues from selected mice of conventional surgery group and tissues samples from the tumor beds of selected mice of FGS group were submit for pathological (IHC) analysis. Response to surgical treatment was monitored for over 30 days by imaging using AMI image system 2 h after injecting OTL78 (10 nmol/mouse) and by measuring the growth of the tumor volume using a caliper. Any animal with tumor volume ≥1000 mm3 were euthanized. Tumor-free survival of the mice was documented as % survival vs. time using GraphPad Prism 6. IHC studies were done as explained bellow in the Safety Studies.

LNCaP tumor xenografts = assay: OTL78 whole body imaging and tissue biodistribution, subcutaneous tumor; assay type: in vivo, mice; details: 10 nmol, 2 h
Protocol: as §1, §2

[5] = 0.3-120 nmol/mouse tested, 2 hour time point, IVIS

T1 sequence (Q04609 whole entry): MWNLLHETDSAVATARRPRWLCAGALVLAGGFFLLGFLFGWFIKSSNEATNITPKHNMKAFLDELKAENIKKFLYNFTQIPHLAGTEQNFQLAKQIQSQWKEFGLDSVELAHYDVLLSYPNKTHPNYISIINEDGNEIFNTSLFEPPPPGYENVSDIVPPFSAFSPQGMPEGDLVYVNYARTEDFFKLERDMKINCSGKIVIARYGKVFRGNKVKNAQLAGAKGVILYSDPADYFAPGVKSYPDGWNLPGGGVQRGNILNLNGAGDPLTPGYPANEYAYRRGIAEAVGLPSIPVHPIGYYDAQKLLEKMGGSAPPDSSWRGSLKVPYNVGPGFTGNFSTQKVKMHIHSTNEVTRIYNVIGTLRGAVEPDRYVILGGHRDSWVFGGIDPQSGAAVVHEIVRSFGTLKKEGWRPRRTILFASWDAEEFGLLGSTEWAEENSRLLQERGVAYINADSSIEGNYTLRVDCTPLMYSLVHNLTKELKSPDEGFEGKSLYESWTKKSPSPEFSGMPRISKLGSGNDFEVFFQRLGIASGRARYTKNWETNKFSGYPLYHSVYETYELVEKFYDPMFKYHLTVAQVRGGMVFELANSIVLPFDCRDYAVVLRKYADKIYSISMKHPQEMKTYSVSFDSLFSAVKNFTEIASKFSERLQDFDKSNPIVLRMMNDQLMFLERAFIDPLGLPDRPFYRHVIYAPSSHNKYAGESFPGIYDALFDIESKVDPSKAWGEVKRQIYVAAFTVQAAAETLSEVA

## CC1(C)C(/C=C/C2=C(Oc3ccc(C[C@H](NC(=O)[C@H](Cc4ccccc4)NC(=O)CCOCCOCCNC(=O)CC[C@H](NC(=O)N[C@@H](CCC(=O)O)C(=O)O)C(=O)O)C(=O)O)cc3)C(=C/C=C3/N(CCCCS(=O)(=O)O)c4ccc(S(=O)(=O)O)cc4C3(C)C)/CCC2)=[N+](CCCCS(=O)(=O)[O-])c2ccc(S(=O)(=O)O)cc21 [OTL78]
[1]
  higher order aggregates (UV spectra), in words: no noticeable higher order aggregates
PSMA on 22Rv1 cells
  IC50: 7 nM
22Rv1 orthotopic tumors
  accumulation in orthotopic prostate tumors: mainly accumulated in prostate tumors with no fluorescence observed in other tissues except kidneys
22Rv1 orthotopic tumors; in the presence of primary tumor
  detection of local regional metastasis in seminal vesicles: able to detect
22Rv1 tumor xenografts [2]; 10 nmol, 2 h
  accumulation in 22Rv1 tumors: accumulated predominantly
22Rv1 tumor xenografts [2]; [5]
  dose of best TBR: 3-10 nmol/mouse
  dose range providing excellent TBR: 1-30 nmol per mouse
22Rv1 tumor xenografts [2]; mouse, in vivo
  time for skin uptake to clear: 4 to 5 h
[3]
  enhancement of the fluorescence of S0456: ≥ 2
basophils; FIG. 47E, ≥2 considered positive response
  stimulated index: 1
basophils; average of 3 healthy subjects
  Percent of basophile activation, Avg: 2.8%
basophils; healthy subjects, OTL78 75 μM
  Percent of basophile activation, Subject 1: 2.64%
  Percent of basophile activation, Subject 2: 2.67%
  Percent of basophile activation, Subject 3: 3.14%
basophils; stimulation index, ≥2 considered positive response
  SI = Avg/background: 1.1
22Rv1 tumor xenografts [4]; 10 nmol, preoperative images
  time to localize 22Rv1 tumors with high contrast: ≤ 2 h
22Rv1 tumor xenografts [4]; 10 nmol, surgery at 2 h
  postoperative residual fluorescence in the tumor bed, FGS cohorts: no significant fluorescence
22Rv1 tumor xenografts [4]; monitored for over a month
  biochemical recurrence (BCR), FGS cohort: no sign of BCR
22Rv1 tumor xenografts [4]; over 30 days
  survival, FGS cohorts: survived during the study
22Rv1 tumor xenografts [4]; pathological analysis
  residual tumors in tumor margin/bed tissues, FGS cohorts: no residual tumors
LNCaP tumor xenografts
  accumulation in LNCaP tumors: accumulated predominantly
